# Data from patent US9676732B2, “Ethynyl derivatives” (Hoffmann-La Roche Inc., priority 2013, dated 2017).
# Biological target: human mGlu4 receptor (Homo sapiens (Human), UniProt Q14833)
# Assay: Ca2+ mobilization in vitro assay on recombinant human mGlu4 expressed in HEK293 cells (mGlu4 PAM)
# Assay type: cell-based
# Conditions: for EC50: HEK293 cells stably expressing human mGlu4, L-AP4 added at EC20, read-out: EC50 (nM) mGlu4PAM; for Eff. (%): maximal response in % of the maximal stimulatory effect obtained with saturating concentrations of L-AP4
# Description: Determination of EC50 Values Using a Ca2+ Mobilization In Vitro Assay on Recombinant Human mGlu4 Expressed in HEK293 Cells:
# A monoclonal HEK-293 cell line stably transfected with a cDNA encoding for the human mGlu4 receptor was generated; for the work with mGlu4 Positive Allosteric Modulators (PAMs), a cell line with low receptor expression levels and low constitutive receptor activity was selected to allow the differentiation of agonistic versus PAM activity. Cells were cultured according to standard protocols (Freshney, 2000) in Dulbecco's Modified Eagle Medium with high glucose supplemented with 1 mM glutamine, 10% (vol/vol) heat-inactivated bovine calf serum, Penicillin/Streptomycin, 50 μg/ml hygromycin and 15 μg/ml blasticidin (all cell culture reagents and antibiotics from Invitrogen, Basel, Switzerland).
# About 24 hrs before an experiment, 5×10^4 cells/well were seeded in poly-D-lysine coated, black/clear-bottomed 96-well plates. The cells were loaded with 2.5 μM Fluo-4AM in loading buffer (1×HBSS, 20 mM HEPES) for 1 hr at 37° C. and washed five times with loading buffer. The cells were transferred into a Functional Drug Screening System 7000 (Hamamatsu, Paris, France), and 11 half logarithmic serial dilutions of test compound at 37° C. were added and the cells were incubated for 10-30 min. with on-line recording of fluorescence. Following this pre-incubation step, the agonist (2S)-2-amino-4-phosphonobutanoic acid (L-AP4) was added to the cells at a concentration corresponding to EC20 with on-line recording of fluorescence; in order to account for day-to-day variations in the responsiveness of cells, the EC20 of L-AP4 was determined immediately ahead of each experiment by recording of a full dose-response curve of L-AP4.
# Responses were measured as peak increase in fluorescence minus basal (i.e. fluorescence without addition of L-AP4), normalized to the maximal stimulatory effect obtained with saturating concentrations of L-AP4. Graphs were plotted with the % maximal stimulatory using XLfit, a curve fitting program that iteratively plots the data using Levenburg Marquardt algorithm. The single site competition analysis equation used was y=A+((B−A)/(1+((x/C)D))), where y is the % maximal stimulatory effect, A is the minimum y, B is the maximum y, C is the EC50, x is the log 10 of the concentration of the competing compound and D is the slope of the curve (the Hill Coefficient). From these curves the EC50 (drug concentration at which 50% of the maximal receptor activation was achieved), the Hill coefficient as well as the maximal response in % of the maximal stimulatory effect obtained with saturating concentrations of L-AP4 were calculated (see FIG. 1).
# A depression of the signal observed after addition of the EC20 concentration of L-AP4 was indicative of an inhibitory activity of the test compound. • FIG. 1: Illustration of the experimental outline for mGlu4 PAM Ca2+ mobilization screening assay and the determination of EC50 and % Emax values.
# Sequence of human mGlu4 receptor (Q14833 33-912): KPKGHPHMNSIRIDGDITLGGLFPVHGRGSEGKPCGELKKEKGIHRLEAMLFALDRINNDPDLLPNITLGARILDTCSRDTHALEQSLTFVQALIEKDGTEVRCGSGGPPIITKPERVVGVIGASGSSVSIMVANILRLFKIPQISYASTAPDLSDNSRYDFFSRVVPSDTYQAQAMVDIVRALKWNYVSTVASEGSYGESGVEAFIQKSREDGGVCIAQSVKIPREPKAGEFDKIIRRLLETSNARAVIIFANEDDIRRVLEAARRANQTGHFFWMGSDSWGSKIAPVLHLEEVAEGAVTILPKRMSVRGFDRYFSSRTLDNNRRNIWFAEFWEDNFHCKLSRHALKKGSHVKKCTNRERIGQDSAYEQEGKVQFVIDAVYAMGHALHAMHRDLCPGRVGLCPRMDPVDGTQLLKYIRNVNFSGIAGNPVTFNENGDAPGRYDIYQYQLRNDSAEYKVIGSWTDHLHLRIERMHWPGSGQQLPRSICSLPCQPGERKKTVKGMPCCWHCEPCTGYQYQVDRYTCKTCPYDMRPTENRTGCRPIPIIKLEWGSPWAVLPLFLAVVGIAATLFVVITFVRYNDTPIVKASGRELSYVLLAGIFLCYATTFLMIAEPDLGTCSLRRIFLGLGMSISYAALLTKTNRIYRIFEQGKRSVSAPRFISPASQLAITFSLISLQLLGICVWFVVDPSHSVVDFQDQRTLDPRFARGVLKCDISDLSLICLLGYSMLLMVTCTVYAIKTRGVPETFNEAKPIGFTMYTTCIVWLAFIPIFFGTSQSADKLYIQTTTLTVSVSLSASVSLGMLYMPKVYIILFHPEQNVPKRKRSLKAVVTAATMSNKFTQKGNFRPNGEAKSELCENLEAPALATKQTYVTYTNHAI
EC50 [nM],Eff. (%),SMILES
137,92,"CC(C)n1c(=O)n(-c2ncc(C#Cc3ccccc3)cc2Cl)c(=O)c2ccccc21 [Example 45, 3-[3-Chloro-5-(2-phenylethynyl)-2-pyridyl]-1-isopropyl-quinazoline-2,4-dione]"
141,113,"Cc1cccc2c(=O)n(-c3ncc(C#Cc4ccccc4)cc3Cl)c(=O)n(C)c12 [Example 46, 3-[3-Chloro-5-(2-phenylethynyl)-2-pyridyl]-1,8-dimethyl-quinazoline-2,4-dione]"
187,110,"O=c1c2cccc3c2n(c(=O)n1-c1ncc(C#Cc2ccccc2)cc1Cl)CC3 [Example 47, 2-(3-Chloro-5-(phenylethynyl)pyridin-2-yl)-5,6-dihydro-1H-pyrrolo[3,2,1-ij]quinazoline-1,3(2H)-dione]"
175,95,"Cn1c(=O)n(-c2ncc(C#Cc3ccccc3)cc2C(F)(F)F)c(=O)c2ccccc21 [Example 48, 1-Methyl-3-[5-(2-phenylethynyl)-3-(trifluoromethyl)-2-pyridyl]quinazoline-2,4-dione]"
302,111,"Cc1cccc2c(=O)n(-c3ncc(C#Cc4ccccc4)cc3F)c(=O)n(C)c12 [Example 49, 3-[3-Fluoro-5-(2-phenylethynyl)-2-pyridyl]-1,8-dimethyl-quinazoline-2,4-dione]"
499,110,"COCCn1c(=O)n(-c2ccc(C#Cc3ccccc3)cc2Cl)c(=O)c2ccccc21 [Example 50, 3-[2-Chloro-4-(2-phenylethynyl)phenyl]-1-(2-methoxyethyl)quinazoline-2,4-dione]"
164,127,"Cn1c(=O)n(-c2ccc(C#Cc3ccccc3)cc2Cl)c(=O)c2sc(N3CCOCC3)nc21 [Example 51, 6-[2-Chloro-4-(2-phenylethynyl)phenyl]-4-methyl-2-morpholino-thiazolo[4,5-d]pyrimidine-5,7-dione]"
200,110,"Cn1c(=O)n(-c2ccc(C#Cc3ccccc3)cc2Cl)c(=O)c2scnc21 [Example 52, 6-(2-Chloro-4-phenylethynyl-phenyl)-4-methyl-4H-thiazolo[4,5-d]pyrimidine-5,7-dione]"
102,123,"O=c1c2ccccc2n(C2CCC2)c(=O)n1-c1ccc(C#Cc2ccccc2)cc1Cl [Example 53, 3-[2-Chloro-4-(2-phenylethynyl)phenyl]-1-cyclobutyl-quinazoline-2,4-dione]"
179,97,"CC(C)c1cccc2c(=O)n(-c3ccc(C#Cc4ccccc4)cc3Cl)c(=O)n(C)c12 [Example 54, 3-[2-Chloro-4-(2-phenylethynyl)phenyl]-8-isopropyl-1-methyl-quinazoline-2,4-dione]"
766,123,"CC(C)n1c(=O)n(-c2ccc(C#Cc3ccccc3)cn2)c(=O)c2ccccc21 [Example 55, 1-Isopropyl-3-[5-(2-phenylethynyl)-2-pyridyl]quinazoline-2,4-dione]"
121,120,"CC(C)n1c(=O)n(-c2ncc(C#Cc3ccccc3)cc2F)c(=O)c2nn(C)cc21 [Example 56, 6-[3-Fluoro-5-(2-phenylethynyl)-2-pyridyl]-4-isopropyl-2-methyl-pyrazolo[4,3-d]pyrimidine-5,7-dione]"
65,134,"CC(C)n1c(=O)n(-c2c(F)cc(C#Cc3cccnc3)cc2F)c(=O)c2nn(C)cc21 [Example 57, 6-[2,6-Difluoro-4-[2-(3-pyridyl)ethynyl]phenyl]-4-isopropyl-2-methyl-pyrazolo[4,3-d]pyrimidine-5,7-dione]"
37,120,"CC(C)n1c(=O)n(-c2c(F)cc(C#Cc3cccnc3)cc2Cl)c(=O)c2nn(C)cc21 [Example 58, 6-[2-Chloro-6-fluoro-4-[2-(3-pyridyl)ethynyl]phenyl]-4-isopropyl-2-methyl-pyrazolo[4,3-d]pyrimidine-5,7-dione]"
169,146,"CC(C)n1c(=O)n(-c2ncc(C#Cc3cccnc3)cc2Cl)c(=O)c2nn(C)cc21 [Example 59, 6-[3-Chloro-5-[2-(3-pyridyl)ethynyl]-2-pyridyl]-4-isopropyl-2-methyl-pyrazolo[4,3-d]pyrimidine-5,7-dione]"
189,150,"CC(C)n1c(=O)n(-c2ncc(C#Cc3ccccc3)cc2Cl)c(=O)c2nn(C)cc21 [Example 60, 6-[3-Chloro-5-(2-phenylethynyl)-2-pyridyl]-4-isopropyl-2-methyl-pyrazolo[4,3-d]pyrimidine-5,7-dione]"
91,129,"Cn1c(=O)n(-c2c(F)cc(C#Cc3ccccc3)cc2F)c(=O)c2nccc(Cl)c21 [Example 61, 8-Chloro-3-[2,6-difluoro-4-(2-phenylethynyl)phenyl]-1-methyl-pyrido[3,2-d]pyrimidine-2,4-dione]"
137,145,"Cn1cc2c(=O)n(-c3c(F)cc(C#Cc4ccccc4)cc3F)c(=O)n(C)c2n1 [Example 62, 5-[2,6-Difluoro-4-(2-phenylethynyl)phenyl]-2,7-dimethyl-pyrazolo[3,4-d]pyrimidine-4,6-dione]"
26,146,"Cn1ncc2c(=O)n(-c3c(F)cc(C#Cc4ccccc4)cc3F)c(=O)n(C)c21 [Example 63, 5-[2,6-Difluoro-4-(2-phenylethynyl)phenyl]-1,7-dimethyl-pyrazolo[3,4-d]pyrimidine-4,6-dione]"
121,120,"CC(C)n1c(=O)n(-c2c(F)cc(C#Cc3ccccc3)cc2F)c(=O)c2c[nH]nc21 [Example 64, 5-[2,6-Difluoro-4-(2-phenylethynyl)phenyl]-7-isopropyl-2H-pyrazolo[3,4-d]pyrimidine-4,6-dione]"
32,97,"COc1cccc2c(=O)n(-c3ccc(C#Cc4ccccc4)cc3Cl)c(=O)n(C)c12 [Example 65, 3-[2-Chloro-4-(2-phenylethynyl)phenyl]-8-methoxy-1-methyl-quinazoline-2,4-dione]"
75,184,"O=c1c2ccccc2n(C2COC2)c(=O)n1-c1c(F)cc(C#Cc2ccccc2)cc1F [Example 66, 3-[2,6-Difluoro-4-(2-phenylethynyl)phenyl]-1-(oxetan-3-yl)quinazoline-2,4-dione]"
246,188,"Cn1c(=O)n(-c2ccc(C#Cc3ccccc3)cc2Cl)c(=O)c2ncsc21 [Example 67, 6-[2-Chloro-4-(2-phenylethynyl)phenyl]-4-methyl-thiazolo[5,4-d]pyrimidine-5,7-dione]"
48,225,"CC(C)n1c(=O)n(-c2c(F)cc(C#Cc3ccccc3)cc2F)c(=O)c2nccnc21 [Example 68, 3-[2,6-Difluoro-4-(2-phenylethynyl)phenyl]-1-isopropyl-pteridine-2,4-dione]"
50,113,"Cn1cnc2c1c(=O)n(-c1c(F)cc(C#Cc3ccccc3)cc1F)c(=O)n2C [Example 69, 1-[2,6-Difluoro-4-(2-phenylethynyl)phenyl]-3,7-dimethyl-purine-2,6-dione]"
38,152,"COc1cccc2c(=O)n(-c3c(F)cc(C#Cc4ccccc4)cc3F)c(=O)n(C)c12 [Example 70, 3-[2,6-Difluoro-4-(2-phenylethynyl)phenyl]-8-methoxy-1-methyl-quinazoline-2,4-dione]"
86,103,"O=c1c2ccccc2n(C2COC2)c(=O)n1-c1c(F)cc(C#Cc2cccnc2)cc1Cl [Example 71, 3-[2-Chloro-6-fluoro-4-[2-(3-pyridyl)ethynyl]phenyl]-1-(oxetan-3-yl)quinazoline-2,4-dione]"
63,134,"CC(C)n1c(=O)n(-c2c(F)cc(C#Cc3ccccc3)cc2C(F)(F)F)c(=O)c2ccccc21 [Example 72, 3-[2-Fluoro-4-(2-phenylethynyl)-6-(trifluoromethyl)phenyl]-1-isopropyl-quinazoline-2,4-dione]"
